Measurements taken from patent US20030119061A1, “Structure-based drug design methods for identifying D-Ala-D-Ala ligase inhibitors as antibacterial drugs” (priority 2001, published 2003).

How the values were obtained:
[1] = molecular target: D-Ala-D-Ala ligase omega loop (D domain) (Escherichia coli, UniProt P07862); assay: Proteolysis (trypsin) assay of omega loop closure; assay type: biochemical
Excerpt: (§1) We have developed an in vitro assay to look at the closure of the omega loop (i.e., the D domain). The closure of the omega loop is probed by proteolysis.

D-Ala-D-Ala ligase [2] = molecular target: T1, D-Ala-D-Ala ligase (Escherichia coli, UniProt P07862); assay: Stopped flow fluorescence quenching studies of nucleotide binding to ligase; details: for Kd: partially closed complex, product of Kd1 and Kd2, read-out: final (overall) Kd
Procedure: We have discovered a significant fluorescence quenching upon binding of ATP and ADP, which we have exploited to examine mechanistic features of ligase. We have carried out stopped flow studies to look at the binding of ATP and ADP to ligase. These studies were carried out at 4° C. We observe a single exponential fluorescent quenching which is completed in <20 ms. […] This confirms our previous hypothesis about ligase, namely that the enzyme undergoes conformational changes that are an important and integral part of its enzymatic mechanism. This enzyme appears to fall into the category of “induced fit”.
The enzyme undergoes a conformational change to form the partially closed complex EA*. […] For ADP the conformational change increases the affinity of the nucleotide seven-fold for the partially closed complex, with respect to the initial collision complex, leading to an overall Kd of 50 μM. […] To dissociate the ligand, the enzyme has to relax back to the open form. […] In some cases, it can be advantageous for the inhibitor to trigger a further conformational change, perhaps the closure of the omega loop of domain D, leading to a fully closed form of the enzyme.
Stopped flow studies have added to the understanding of the mechanism by which ligase binds ligands, and have confirmed previous suspicions about “induced fit” mechanism. Determining the affinity of high affinity inhibitors (low nM) will be difficult by equilibrium binding methods or steady state enzyme kinetics. Stopped flow studies may well be the only way that the affinity of high affinity inhibitors can be determined with any degree of confidence. The studies can be carried out, for example, using the methods described by Eccleston, J. F. “Stopped-flow Spectrophotometric Techniques” in Spectrophotometry and Spectrofluorimetry a Practical Approach, Ed. D. A. Harris & C. L. Bashford, IRL Press, 1987, p. 137-164.

D-Ala-D-Ala ligase [3] = molecular target: T1, D-Ala-D-Ala ligase; assay: Affinity for D-Ala-D-Ala ligase relative to ATP (method not given); assay type: binding; details: given in brackets after ATP
Excerpt: as §1

D-Ala-D-Ala ligase [4] = molecular target: T1, D-Ala-D-Ala ligase; assay: D-Ala-D-Ala ligase IC50 determination (PK/LDH coupled assay); assay type: biochemical; details: control in 1× core buffer; read-out: value (IC50 or Ki) for D-Ala-D-Ala ligase inhibition
Excerpt: Inhibition of D-Ala-D-Ala ligase can be assayed for using the pyruvate kinase/lactate dehydrogenase (PK/LDH) assay described in Example 2. In the bacterial cell wall synthesis process, the ligase catalyzes the conversion of ATP to ADP concurrent with the ligation of two D-alanine residues. PK then regenerates ATP from the ADP thus created simultaneously with the conversion of phosphopyruvate to pyruvate. LDH catalyzes the reduction of pyruvate to lactate by converting NADH to NAD^+. By monitoring the production rate of NAD^+, D-Ala-D-Ala ligase activity can be ascertained.
The purine derivatives of Example 1 were dissolved in dimethylsulfoxide (DMSO) at a concentration of 100 mM on the day of screening, using a vortex mixer if necessary for dissolution. The solutions were kept at room temperature until screening was completed.
A 10 mM NADH (Sigma) stock solution was prepared fresh on the day of screening by dissolving 32 μmol NADH in 3.2 ml double-distilled water. The NADH solution was kept on ice. […]
At t=18-19 minutes, the substrate solution was taken from 25° C. to a Spectromax® UV-vis spectrophotometer. At t=20 minutes, within a 30 second timeframe, 125 μl of substrate solution was added to each well of columns 1-4, and the absorbance at 340 nm was read. […]

[5] = together with a D-Ala site binding molecule (phosphinate, D-Ala-D-Ala or cycloserine)

SMILES | omega loop closure (protection from trypsin proteolysis) [1, 5] | increase in affinity by the conformational change (partially closed vs initial collision complex) (D-Ala-D-Ala ligase [2]; stopped flow, 4° C.) | Kd (D-Ala-D-Ala ligase [2]; stopped flow, 4° C.) | further results
Nc1ncnc2c1ncn2[C@@H]1O[C@H](COP(=O)(O)OP(=O)(O)O)[C@@H](O)[C@H]1O [ADP] | stabilize the omega loop closure | seven | 50 µM | affinity for D-Ala-D-Ala ligase relative to ATP (D-Ala-D-Ala ligase [2]; ADP vs ATP): three; net dissociation rate constant (k−2) (D-Ala-D-Ala ligase [2]; stopped flow, 4° C.): 72 s⁻¹
Nc1ncnc2c1ncn2[C@@H]1O[C@H](COP(=O)(O)OP(=O)(O)NP(=O)(O)O)[C@@H](O)[C@H]1O [AMPPNP] | does not support the omega loop closure |  |  | 
Nc1ncnc2c1ncn2[C@@H]1O[C@H](COP(=O)(O)OP(=O)(O)OP(=O)(O)O)[C@@H](O)[C@H]1O [ATP, adenosine triphosphate] | stabilize the omega loop closure | 3.2 fold | 157 µM | omega loop closure (protection from trypsin proteolysis) ([1]; nucleotide alone, no D-Ala site binding molecule): cannot close the omega loop; Kd (D-Ala-D-Ala ligase [3]): 300 µM; koff (D-Ala-D-Ala ligase [2]; stopped flow, 4° C., read-out: net dissociation rate constant (k−2)): 126 s⁻¹
Nc1ncnc2c1ncn2[C@@H]1O[C@H](COP(=O)(O)OP(=O)(O)OP(O)(O)=S)[C@@H](O)[C@H]1O [ATPgS] | stabilize the omega loop closure |  |  | 
N[C@@H]1CON=C1O [Cycloserine, D-cycloserine] |  |  |  | IC50 (D-Ala-D-Ala ligase [4]): ~150 µM
